In patent US9695155B2, “Herbicidal substituted pyrimidinyloxy benzene compounds” (E. I. DU PONT DE NEMOURS AND COMPANY, priority 2013, dated 2017):

Assays:
green foxtail = assay: Test D preemergence; format: in vivo, Setaria viridis
Summary of the method: (§1)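 Plant response is a visual score from 0 (no effect) to 100 (complete control) relative to controls. Plants were kept in a controlled growth environment for 7 to 21 days after spraying. Preemergence treatments went onto silt loam soil; postemergence ones onto 1- to 4-leaf seedlings.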

wild mustard = assay: Test D postemergence; format: in vivo, Sinapis arvensis
Summary of the method: as §1

deadnettle = assay: Test D postemergence; format: in vivo, Lamium amplexicaule
Summary of the method: as §1

field poppy = assay: Test D postemergence; format: in vivo, Papaver rhoeas
Summary of the method: as §1

speedwell = assay: Test D postemergence; format: in vivo, Veronica persica
Summary of the method: as §1

kochia = assay: Test D postemergence; format: in vivo, Kochia scoparia
Summary of the method: as §1

chamomile = assay: Test D postemergence; format: in vivo, Matricaria inodora
Summary of the method: as §1

bromegrass, downy = assay: Test D postemergence; format: in vivo, Bromus tectorum; details: Postemergence, scale 0 to 100 (0 no effect, 100 complete control)
Summary of the method: as §1

wild radish = assay: Test D postemergence; format: in vivo, Raphanus raphanistrum
Summary of the method: as §1

field violet = assay: Test D postemergence; format: in vivo, Viola arvensis
Summary of the method: as §1

oilseed rape = assay: Test D preemergence; format: in vivo, Brassica napus
Summary of the method: as §1

bluegrass = assay: Test D preemergence; format: in vivo, Poa annua
Summary of the method: as §1

[1] = 31 g ai/ha, scale 0 (no effect) to 100 (complete control)
[2] = 62 g ai/ha, scale 0 to 100 (0 no effect, 100 complete control)
[3] = 125 g ai/ha, scale 0 to 100 (0 no effect, 100 complete control)
[4] = 250 g ai/ha, scale 0 to 100 (0 no effect, 100 complete control)

Fc1cccc(Oc2ncc(Cl)cn2)c1-n1cc(Br)cn1 [Compound 178, 2-[2-(4-bromo-1H-pyrazol-1-yl)-3-fluorophenoxy]-5-chloropyrimidine]
pest or weed control at 16 g/ha (green foxtail; Setaria viridis, pre-emergence, 16 g ai/ha, scale 0 (no effect) to 100 (complete control), read-out: Plant response rating, Foxtail, Green): 0%
pest or weed control at 31 g/ha (green foxtail; Setaria viridis, pre-emergence, 31 g ai/ha, scale 0-100, read-out: Plant response rating, Foxtail, Green): 0%
pest or weed control at 62 g/ha (green foxtail; Setaria viridis, pre-emergence, 62 g ai/ha, scale 0-100, read-out: Plant response rating, Foxtail, Green): 5%
pest or weed control at 125 g/ha (green foxtail; Setaria viridis, pre-emergence, 125 g ai/ha, scale 0-100, read-out: Plant response rating, Foxtail, Green): 95%
pest or weed control at 16 g/ha (wild mustard; Brassica, post-emergence, 16 g ai/ha, scale 0-100, read-out: Plant response rating, Mustard, Wild): 70%
pest or weed control at 31 g/ha (wild mustard; Brassica, post-emergence, 31 g ai/ha, scale 0 to 100 (0 no effect, 100 complete control), read-out: Plant response rating, Mustard, Wild): 75%
pest or weed control at 62 g/ha (wild mustard; Brassica, post-emergence, 62 g ai/ha, scale 0 to 100 (0 no effect, 100 complete control), read-out: Plant response rating, Mustard, Wild): 75%
pest or weed control at 125 g/ha (wild mustard; Brassica, post-emergence, 125 g ai/ha, scale 0 to 100 (0 no effect, 100 complete control), read-out: Plant response rating, Mustard, Wild): 100%
pest or weed control at 16 g/ha (deadnettle; Lamium amplexicaule, post-emergence, 16 g ai/ha, scale 0-100, read-out: Plant response rating, Deadnettle): 40%
pest or weed control at 31 g/ha (deadnettle; Lamium amplexicaule, post-emergence, 31 g ai/ha, scale 0 to 100 (0 no effect, 100 complete control), read-out: Plant response rating, Deadnettle): 45%
pest or weed control at 62 g/ha (deadnettle; Lamium amplexicaule, post-emergence, 62 g ai/ha, scale 0 to 100 (0 no effect, 100 complete control), read-out: Plant response rating, Deadnettle): 50%
pest or weed control at 125 g/ha (deadnettle; Lamium amplexicaule, post-emergence, 125 g ai/ha, scale 0 to 100 (0 no effect, 100 complete control), read-out: Plant response rating, Deadnettle): 65%
pest or weed control at 16 g/ha (field poppy; Papaver rhoeas, post-emergence, 16 g ai/ha, scale 0-100, read-out: Plant response rating, Field Poppy): 45%
pest or weed control at 31 g/ha (field poppy; Papaver rhoeas, post-emergence, 31 g ai/ha, scale 0 to 100 (0 no effect, 100 complete control), read-out: Plant response rating, Field Poppy): 55%
pest or weed control at 62 g/ha (field poppy; Papaver rhoeas, post-emergence, 62 g ai/ha, scale 0 to 100 (0 no effect, 100 complete control), read-out: Plant response rating, Field Poppy): 65%
pest or weed control at 125 g/ha (field poppy; Papaver rhoeas, post-emergence, 125 g ai/ha, scale 0 to 100 (0 no effect, 100 complete control), read-out: Plant response rating, Field Poppy): 75%
pest or weed control at 16 g/ha (speedwell; Veronica persica, post-emergence, 16 g ai/ha, scale 0-100, read-out: Plant response rating, Speedwell): 70%
pest or weed control at 31 g/ha (speedwell; Veronica persica, post-emergence, 31 g ai/ha, scale 0 to 100 (0 no effect, 100 complete control), read-out: Plant response rating, Speedwell): 80%
pest or weed control at 62 g/ha (speedwell; Veronica persica, post-emergence, 62 g ai/ha, scale 0 to 100 (0 no effect, 100 complete control), read-out: Plant response rating, Speedwell): 100%
pest or weed control at 125 g/ha (speedwell; Veronica persica, post-emergence, 125 g ai/ha, scale 0 to 100 (0 no effect, 100 complete control), read-out: Plant response rating, Speedwell): 100%
pest or weed control at 16 g/ha (kochia; Bassia scoparia, post-emergence, 16 g ai/ha, scale 0-100, read-out: Plant response rating, Kochia): 60%
pest or weed control at 31 g/ha (kochia; Bassia scoparia, post-emergence, 31 g ai/ha, scale 0 to 100 (0 no effect, 100 complete control), read-out: Plant response rating, Kochia): 70%
pest or weed control at 62 g/ha (kochia; Bassia scoparia, post-emergence, 62 g ai/ha, scale 0 to 100 (0 no effect, 100 complete control), read-out: Plant response rating, Kochia): 75%
pest or weed control at 125 g/ha (kochia; Bassia scoparia, post-emergence, 125 g ai/ha, scale 0 to 100 (0 no effect, 100 complete control), read-out: Plant response rating, Kochia): 85%
pest or weed control at 16 g/ha (chamomile; Tripleurospermum inodorum, post-emergence, 16 g ai/ha, scale 0-100, read-out: Plant response rating, Chamomile): 0%
pest or weed control at 31 g/ha (chamomile; Tripleurospermum inodorum, post-emergence, 31 g ai/ha, scale 0 to 100 (0 no effect, 100 complete control), read-out: Plant response rating, Chamomile): 0%
pest or weed control at 62 g/ha (chamomile; Tripleurospermum inodorum, post-emergence, 62 g ai/ha, scale 0 to 100 (0 no effect, 100 complete control), read-out: Plant response rating, Chamomile): 5%
pest or weed control at 125 g/ha (chamomile; Tripleurospermum inodorum, post-emergence, 125 g ai/ha, scale 0 to 100 (0 no effect, 100 complete control), read-out: Plant response rating, Chamomile): 5%
pest or weed control at 16 g/ha (bromegrass, downy; Bromus tectorum, post-emergence, 16 g ai/ha, read-out: Plant response rating, Bromegrass, Downy): 5%
pest or weed control at 31 g/ha (bromegrass, downy; Bromus tectorum, post-emergence, 31 g ai/ha, read-out: Plant response rating, Bromegrass, Downy): 5%
pest or weed control at 62 g/ha (bromegrass, downy; Bromus tectorum, post-emergence, 62 g ai/ha, read-out: Plant response rating, Bromegrass, Downy): 10%
pest or weed control at 125 g/ha (bromegrass, downy; Bromus tectorum, post-emergence, 125 g ai/ha, read-out: Plant response rating, Bromegrass, Downy): 20%
pest or weed control at 16 g/ha (wild radish; Raphanus raphanistrum, post-emergence, 16 g ai/ha, scale 0-100, read-out: Plant response rating, Radish, Wild): 60%
pest or weed control at 31 g/ha (wild radish; Raphanus raphanistrum, post-emergence, 31 g ai/ha, scale 0 to 100 (0 no effect, 100 complete control), read-out: Plant response rating, Radish, Wild): 65%
pest or weed control at 62 g/ha (wild radish; Raphanus raphanistrum, post-emergence, 62 g ai/ha, scale 0 to 100 (0 no effect, 100 complete control), read-out: Plant response rating, Radish, Wild): 70%
pest or weed control at 125 g/ha (wild radish; Raphanus raphanistrum, post-emergence, 125 g ai/ha, scale 0 to 100 (0 no effect, 100 complete control), read-out: Plant response rating, Radish, Wild): 80%
pest or weed control at 16 g/ha (field violet; Viola arvensis, post-emergence, 16 g ai/ha, scale 0-100, read-out: Plant response rating, Field Violet): 50%
pest or weed control at 31 g/ha (field violet; Viola arvensis, post-emergence, 31 g ai/ha, scale 0 to 100 (0 no effect, 100 complete control), read-out: Plant response rating, Field Violet): 60%
pest or weed control at 62 g/ha (field violet; Viola arvensis, post-emergence, 62 g ai/ha, scale 0 to 100 (0 no effect, 100 complete control), read-out: Plant response rating, Field Violet): 65%
pest or weed control at 125 g/ha (field violet; Viola arvensis, post-emergence, 125 g ai/ha, scale 0 to 100 (0 no effect, 100 complete control), read-out: Plant response rating, Field Violet): 70%
plant injury at 16 g/ha (oilseed rape; Brassica napus, pre-emergence, 16 g ai/ha, scale 0 (no effect) to 100 (complete control), read-out: Plant response rating, Oilseed Rape): 65%
plant injury at 31 g/ha (oilseed rape; Brassica napus, pre-emergence, 31 g ai/ha, scale 0-100, read-out: Plant response rating, Oilseed Rape): 75%
plant injury at 125 g/ha (oilseed rape; Brassica napus, pre-emergence, 125 g ai/ha, scale 0-100, read-out: Plant response rating, Oilseed Rape): 100%
pest or weed control at 16 g/ha (bluegrass; Poa annua, pre-emergence, 16 g ai/ha, scale 0 (no effect) to 100 (complete control), read-out: Plant response rating, Bluegrass): 0%
pest or weed control at 31 g/ha (bluegrass; Poa annua, pre-emergence, 31 g ai/ha, scale 0-100, read-out: Plant response rating, Bluegrass): 10%
pest or weed control at 62 g/ha (bluegrass; Poa annua, pre-emergence, 62 g ai/ha, scale 0-100, read-out: Plant response rating, Bluegrass): 20%
pest or weed control at 125 g/ha (bluegrass; Poa annua, pre-emergence, 125 g ai/ha, scale 0-100, read-out: Plant response rating, Bluegrass): 70%

N#Cc1cccc(Oc2ncc(Cl)cn2)c1-n1cc(-n2ccc(C(F)(F)F)n2)cn1 [Compound 284]
Plant response rating, Foxtail, Green (green foxtail; [1]): 10
Plant response rating, Foxtail, Green (green foxtail; 62 g ai/ha, scale 0-100): 5
Plant response rating, Foxtail, Green (green foxtail; 125 g ai/ha, scale 0-100): 10
Plant response rating, Foxtail, Green (green foxtail; 250 g ai/ha, scale 0-100): 80
Plant response rating, Mustard, Wild (wild mustard; 31 g ai/ha, scale 0-100): 100
Plant response rating, Mustard, Wild (wild mustard; [2]): 100
Plant response rating, Mustard, Wild (wild mustard; [3]): 100
Plant response rating, Mustard, Wild (wild mustard; [4]): 100
Plant response rating, Deadnettle (deadnettle; 31 g ai/ha, scale 0-100): 70
Plant response rating, Deadnettle (deadnettle; [2]): 100
Plant response rating, Deadnettle (deadnettle; [3]): 100
Plant response rating, Deadnettle (deadnettle; [4]): 100
Plant response rating, Field Poppy (field poppy; 31 g ai/ha, scale 0-100): 65
Plant response rating, Field Poppy (field poppy; [2]): 70
Plant response rating, Field Poppy (field poppy; [3]): 100
Plant response rating, Field Poppy (field poppy; [4]): 100
Plant response rating, Speedwell (speedwell; 31 g ai/ha, scale 0-100): 70
Plant response rating, Speedwell (speedwell; [2]): 75
Plant response rating, Speedwell (speedwell; [3]): 100
Plant response rating, Speedwell (speedwell; [4]): 100
Plant response rating, Kochia (kochia; 31 g ai/ha, scale 0-100): 100
Plant response rating, Kochia (kochia; [2]): 100
Plant response rating, Kochia (kochia; [3]): 100
Plant response rating, Kochia (kochia; [4]): 100
Plant response rating, Chamomile (chamomile; 31 g ai/ha, scale 0-100): 0
Plant response rating, Chamomile (chamomile; [2]): 0
Plant response rating, Chamomile (chamomile; [3]): 10
Plant response rating, Chamomile (chamomile; [4]): 10
Plant response rating, Bromegrass, Downy (bromegrass, downy; 62 g ai/ha): 40
Plant response rating, Bromegrass, Downy (bromegrass, downy; 31 g ai/ha): 30
Plant response rating, Bromegrass, Downy (bromegrass, downy; 125 g ai/ha): 45
Plant response rating, Bromegrass, Downy (bromegrass, downy; 250 g ai/ha): 45
Plant response rating, Radish, Wild (wild radish; 31 g ai/ha, scale 0-100): 75
Plant response rating, Radish, Wild (wild radish; [2]): 100
Plant response rating, Radish, Wild (wild radish; [3]): 100
Plant response rating, Radish, Wild (wild radish; [4]): 100
Plant response rating, Field Violet (field violet; 31 g ai/ha, scale 0-100): 100
Plant response rating, Field Violet (field violet; [2]): 85
Plant response rating, Field Violet (field violet; [3]): 100
Plant response rating, Field Violet (field violet; [4]): 100
Plant response rating, Oilseed Rape (oilseed rape; [1]): 0
Plant response rating, Oilseed Rape (oilseed rape; 62 g ai/ha, scale 0-100): 0
Plant response rating, Oilseed Rape (oilseed rape; 125 g ai/ha, scale 0-100): 10
Plant response rating, Oilseed Rape (oilseed rape; 250 g ai/ha, scale 0-100): 10
Plant response rating, Bluegrass (bluegrass; [1]): 0
Plant response rating, Bluegrass (bluegrass; 62 g ai/ha, scale 0-100): 15
Plant response rating, Bluegrass (bluegrass; 125 g ai/ha, scale 0-100): 20
Plant response rating, Bluegrass (bluegrass; 250 g ai/ha, scale 0-100): 25
